# Experimental data published in patent US20240343704A1, “HALO-SUBSTITUTED AMINO PYRIDINE COMPOUNDS AS INHIBITORS OF THE HAEMATOPOIETIC PROGENITOR KINASE 1 (HPK1)” (priority 2021, published 2024).
# What was measured:
# [1] = biological target: T1, Recombinant (1-346) HPK1 (h) (Homo sapiens, UniProt Q92918); experiment: HPK1 Human STE Kinase Enzymatic Radiometric Assay; format: biochemical; conditions: read-out: HPK1 IC50 nM Range*
# T1 construct: Recombinant (1-346) HPK1 (h) is incubated with 8 mM MOPS pH 7.0
# T1 sequence (Q92918 1-346): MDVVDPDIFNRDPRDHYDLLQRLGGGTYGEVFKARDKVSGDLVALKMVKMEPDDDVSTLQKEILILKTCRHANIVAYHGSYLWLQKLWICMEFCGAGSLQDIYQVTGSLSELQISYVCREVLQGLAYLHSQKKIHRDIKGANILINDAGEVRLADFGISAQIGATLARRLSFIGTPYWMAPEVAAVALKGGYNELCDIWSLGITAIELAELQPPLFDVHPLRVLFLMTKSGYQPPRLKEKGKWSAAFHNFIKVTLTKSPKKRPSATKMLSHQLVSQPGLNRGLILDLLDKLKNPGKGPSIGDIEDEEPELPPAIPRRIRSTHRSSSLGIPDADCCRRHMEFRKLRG
# Procedure: A stock solution of 10 mM of test compound is prepared in DMSO. The compound plate was prepared by 3-fold and 9-point serial dilutions. […] The reaction is initiated by The addition of the Mg/ATP mix. After incubation for 40 minutes at RT, the reaction is stopped by the addition of phosphoric acid to a concentration of 0.5%.
# Lck (h) = Lck (h) (Homo sapiens, UniProt P06239); experiment: Lck Human  Kinase Enzymatic Radiometric Assay; format: biochemical; conditions: read-out: Lck IC50 nM Range*
# Chain of Lck (h) (P06239 whole entry): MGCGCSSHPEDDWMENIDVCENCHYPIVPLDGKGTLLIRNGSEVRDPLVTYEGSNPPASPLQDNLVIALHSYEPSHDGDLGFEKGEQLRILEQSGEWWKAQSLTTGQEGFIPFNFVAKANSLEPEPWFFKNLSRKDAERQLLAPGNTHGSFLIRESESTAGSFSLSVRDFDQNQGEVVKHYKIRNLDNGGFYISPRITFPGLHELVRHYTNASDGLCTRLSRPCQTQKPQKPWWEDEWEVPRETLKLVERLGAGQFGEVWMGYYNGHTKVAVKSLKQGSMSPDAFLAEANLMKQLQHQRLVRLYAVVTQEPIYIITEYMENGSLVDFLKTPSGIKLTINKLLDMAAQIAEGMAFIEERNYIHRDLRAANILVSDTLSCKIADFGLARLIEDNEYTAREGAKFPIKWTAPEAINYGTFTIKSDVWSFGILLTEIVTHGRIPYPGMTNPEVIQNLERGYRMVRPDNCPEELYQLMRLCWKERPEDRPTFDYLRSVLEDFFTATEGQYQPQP
# Outline: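 Substrate 33P-incorporation measured by scintillation counting after spotting on P30 filtermat and phosphoric acid washes. Human Lck reacted 40 min at RT in 50 mM Tris pH 7.5 with 10 mM MgAcetate, [gamma-33P]-ATP, 250 uM Cdc2 peptide, 0.1 mM EGTA and 0.1 mM Na3VO4.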
Structure (SMILES),IC50 [1],IC50 (Lck (h))
"CC(C)N1CCN(c2ccc(-c3cc(-c4cnc5c(=O)[nH]ccc5c4)c(N)nc3F)cc2)CC1 [I-402, 3-(2-amino-6-fluoro-5-(4-(4-isopropylpiperazin-1-yl)phenyl)pyridin-3-yl)-1,7-naphthyridin-8(7H)-one]",0.1 to 10 nM,> 1000 nM
"CC(C)N1CCN(c2ccc(-c3cc(-c4cc(F)c5c(=O)[nH]cnc5c4)c(N)nc3F)cc2)CC1 [I-405, 7-(2-amino-6-fluoro-5-(4-(4-isopropylpiperazin-1-y)phenyl)pyridin-3-yl)-5-fluoroquinazolin-4(3H)-one]",0.1 to 10 nM,> 1000 nM
"CC(C)N1CCN(c2ccc(-c3cc(-c4cc5nc[nH]c(=O)c5cc4F)c(N)nc3F)cc2)CC1 [I-406, 7-(2-amino-6-fluoro-5-(4-(4-isopropylpiperazin-1-yl)phenyl)pyridin-3-yl)-6-fluoroquinazolin-4(3H)-one]",0.1 to 10 nM,> 1000 nM
"Nc1nc(F)c(-c2ccc(N3CCN(CC4CC4)CC3)cc2)cc1-c1cc(F)c2c(=O)[nH]cnc2c1 [I-407, 7-(2-amino-5-(4-(4-(cyclopropylmethyl)piper-azin-1-yl)phenyl)-6-fluoropyridin-3-yl)-5-fluoroquinazolin-4(3H)-one]",0.1 to 10 nM,> 1000 nM
"Nc1nc(F)c(-c2ccc(N3CCN(CC4CC4)CC3)cc2)cc1-c1cc2nc[nH]c(=O)c2cc1F [I-408, 7-(2-amino-5-(4-(4-(cyclopropylmethyl)piper-azin-1-yl)phenyl)-6-fluoropyridin-3-yl)-6-fluoroquinazolin-4(3H)-one]",0.1 to 10 nM,> 1000 nM
"Cc1nc2cc(-c3cc(-c4ccc(N5CCN(C(C)C)CC5)cc4)c(F)nc3N)ccc2c(=O)[nH]1 [I-409, 7-(2-amino-6-fluoro-5-(4-(4-isopropylpiperazin-1-yl)phenyl)pyridin-3-yl)-2-methylquinazolin-4(3H)-one]",0.1 to 10 nM,> 1000 nM
"CNCc1nc2cc(-c3cc(-c4ccc(N5CCN(C(C)C)CC5)cc4)c(F)nc3N)ccc2c(=O)[nH]1 [I-410, 7-(2-amino-6-fluoro-5-(4-(4-isopropylpiperazin-1-yl)phenyl)pyridin-3-yl)-2-((methylamino)methyl)quin-azolin-4(3H)-one]",11 to 100 nM,> 1000 nM
"Cc1nc2cc(-c3cc(-c4ccc(N5CCN(CC6CC6)CC5)cc4)c(F)nc3N)ccc2c(=O)[nH]1 [I-411, 7-(2-amino-5-(4-(4-(cyclopropylmethyl)piper-azin-1-yl)phenyl)-6-fluoropyridin-3-yl)-2-methylquinazolin-4(3H)-one]",11 to 100 nM,> 1000 nM
"Cc1nc2cc(-c3cc(-c4ccc(N5CCN(C(C)C)CC5)cc4)c(F)nc3N)cc(F)c2c(=O)[nH]1 [I-414, 7-(2-amino-6-fluoro-5-(4-(4-isopropylpiperazin-1-yl)phenyl)pyridin-3-yl)-5-fluoro-2-methylquinazolin-4(3H)-one]",0.1 to 10 nM,> 1000 nM
"Cc1nc2cc(-c3cc(-c4ccc(N5CCN(CC6CC6)CC5)cc4)c(F)nc3N)cc(F)c2c(=O)[nH]1 [I-416, 7-(2-amino-5-(4-(4-(cyclopropylmethyl)piper-azin-1-yl)phenyl)-6-fluoropyridin-3-yl)-5-fluoro-2-methylquinazolin-4(3H)-one]",0.1 to 10 nM,> 1000 nM
"Cc1nc2cc(-c3cc(-c4ccc(N5CCN(CCC6CC6)CC5)cc4)c(F)nc3N)cc(F)c2c(=O)[nH]1 [I-417, 7-(2-amino-5-(4-(4-(2-cyclopropylethyl)piperazin-1-yl)phenyl)-6-fluoropyridin-3-yl)-5-fluoro-2-methylquinazolin-4(3H)-one]",0.1 to 10 nM,> 1000 nM
"Cc1c[nH]c(=O)c2ccc(-c3cc(-c4ccc(C5CCOCC5)c(CN(C)C)c4)c(F)nc3N)cc12 [I-426, 6-(2-amino-5-(3-((dimethylamino)methyl)-4-(tetrahydro-2H-pyran-4-yl)phenyl)-6-fluoropyridin-3-yl)-4-methylisoquinolin-1(2H)-one]",0.1 to 10 nM,> 1000 nM
"CN(C)Cc1nc(-c2cc(-c3cc4c(cc3F)C(=O)NCC4)c(N)nc2F)ccc1N1CCOCC1 [I-427, 6-(6′-amino-6-((dimethylamino)methyl)-2′-fluoro-5-morpholino-[2,3-bipyridin]-5′-yl)-7-fluoro-3,4-dihydroisaoquinolin-1(2H)-one]",0.1 to 10 nM,> 1000 nM
"CN(C)Cc1cc(-c2cc(-c3cc4c(cc3F)C(=O)NCC4)c(N)nc2F)ccc1C1CCOCC1 [I-429, 6-(2-amino-5-(3-((dimethylamino)methyl)-4-(tetrahydro-2H-pyran-4-yl)phenyl)-6-fluoropyridin-3-yl)-7-fluoro-3,4-dihydroisoquinolin-1(2H)-one]",0.1 to 10 nM,> 1000 nM
"Cc1cc(-c2cc(-c3ccc4c(c3)CCNC4=O)c(N)nc2F)cc2c1CCNC2 [I-431, 6-(2-amino-6-fluoro-5-(5-methyl-1,2,3,4-tetrahydroisoquinolin-7-yl)pyridin-3-yl)-3,4-dihydroisoquinolin-1(2H)-one]",0.1 to 10 nM,> 1000 nM
"CN(C)Cc1cc(-c2cc(-c3ccc4c(c3)CCNC4=O)c(N)nc2F)ccc1N1CCOCC1 [I-432, 6-(2-amino-5-(3-((dimethylamino)methyl)-4-morpholinophenyl)-6-fluoropyridin-3-yl)-3,4-dihydroisoquinolin-1(2H)-one]",0.1 to 10 nM,> 1000 nM
"Cc1cc(-c2cc(-c3ccc4c(c3)CCNC4=O)c(N)nc2F)cc2c1CCN(C)C2 [I-434, 6-(2-amino-5-(2,5-dimethyl-1,2,3,4-tetrahydroisoquinolin-7-yl)-6-fluoropyridin-3-yl)-3,4-dihydroisoquinolin-1(2H)-one]",0.1 to 10 nM,> 1000 nM
"CC(C)N1CCN(c2ccc(-c3cc(-c4ccc5c(=O)[nH]c(C(F)(F)F)nc5c4)c(N)nc3F)cc2)CC1 [I-435, 7-(2-amino-6-fluoro-5-(4-(4-isopropylpiperazin-1-yl)phenyl)pyridin-3-yl)-2-(trifluoromethyl)quinazolin-4(3H)-one]",101 to 1000 nM,> 1000 nM
"CN(C)Cc1cc(-c2cc(-c3cc(F)c4c(c3)CCNC4=O)c(N)nc2F)ccc1C1CCOCC1 [I-436, 6-(2-amino-5-(3-((dimethylamino)methyl)-4-(tetrahydro-2H-pyran-4-yl)phenyl)-6-fluoropyridin-3-yl)-8-fluoro-3,4-dihydroisoquinolin-1(2H)-one]",0.1 to 10 nM,> 1000 nM
"Cc1nc2cc(-c3cc(-c4ccc(C5CCOCC5)c(CN(C)C)c4)c(F)nc3N)ccc2c(=O)[nH]1 [I-437, 7-(2-amino-5-(3-((dimethylamino)methyl)-4-(tetrahydro-2H-pyran-4-yl)phenyl)-6-fluoropyridin-3-yl)-2-methylquinazolin-4(3H)-one]",11 to 100 nM,> 1000 nM
"Cc1nc2cc(-c3cc(-c4ccc(N5CCN(C(C)C)CC5)cc4)c(F)nc3N)c(F)cc2c(=O)[nH]1 [I-439, 7-(2-amino-6-fluoro-5-(4-(4-isopropylpiperazin-1-yl)phenyl)pyridin-3-yl)-6-fluoro-2-methylquinazolin-4(3H)-one]",11 to 100 nM,> 1000 nM
"Nc1nc(F)c(-c2ccc(N3CCN(CCCC(F)F)CC3)cc2)cc1-c1cc(F)c2c(c1)CCNC2=O [I-440, 6-(2-amino-5-(4-(4-(4,4-difluorobutyl)piperazin-1-yl)phenyl)-6-fluoropyridin-3-yl)-8-fluoro-3,4-dihydroisoquinolin-1(2H)-one]",0.1 to 10 nM,> 1000 nM
